Measurements from PubChem BioAssay AID504759 (National Center for Advancing Translational Sciences (NCATS), 2011).

Test system: Caco-2 monolayer bidirectional permeability, LC-MS/MS
Assay: Inhibitors of Cruzain: Efflux Ratio Profiling
Conditions: hits give low values
Description: Chagas Disease is a neglected tropical disease that affects over 16 million people in Latin America. The cysteine protease cruzain is essential for the survival Trypanosoma cruzi, the parasitic agent responsible for Chagas disease. Potential intervention for T. cruzi includes the inhibition of cruzain. This bioassay will summarize the ongoing development of small molecule cruzain inhbitiors. Currently, a screen of ~200k compounds and through extensive follow-up work a probe was identified. To further characterize the probe, it was tested in in vitro ADME assays. This bioassays provides profiling data on Caco-2 cell permeability of leads compounds developed for the HPGD project. This in vitro model is often predictive of in vivo efflux of the compound by measuring the ratio of transport in and out the plasma membrane of the Caco2-cell line. NIH Chemical Genomics Center [NCGC] NIH Molecular Libraries Probe Production Centers Network [MLPCN] MLSCN Grant: DA024891-01 PI Name: Dr. Brian Shoichet; University of California, San Francisco
1. Buffer Preparation: Prepare 1M HEPES: add 23.83g HEPES to 100ml of 0.85% NaCl Prepare HBSS+ buffer: add 12.8ml of 1M HEPES in 0.85% NaCl to 500ml HBSS buffer. 2. […] The T0, LY and T90, LY plates are read by FlexStation 3 at excitation of 485 nm and emission of 535 nm to determine LY permeability. […]

efflux ratio: 1.1
SMILES: Cc1ccc(OCCn2c(CCNC(=O)C3CCCCC3)nc3ccccc32)cc1
